One assay deals with T1, 5-lipoxygenase (Cavia porcellus, UniProt A0A286X958).
T1 construct: incubating 0.2 ml of the supernatant obtained from the PMNL sonicate with the test compound; from tissue; host or cells: casein-elicited guinea pig peritoneal polymorphonuclear leukocytes (PMNL, more than 95 percent of the cells), sonicated, 30,000 x g supernatant
T1 sequence (A0A286X958 1-674): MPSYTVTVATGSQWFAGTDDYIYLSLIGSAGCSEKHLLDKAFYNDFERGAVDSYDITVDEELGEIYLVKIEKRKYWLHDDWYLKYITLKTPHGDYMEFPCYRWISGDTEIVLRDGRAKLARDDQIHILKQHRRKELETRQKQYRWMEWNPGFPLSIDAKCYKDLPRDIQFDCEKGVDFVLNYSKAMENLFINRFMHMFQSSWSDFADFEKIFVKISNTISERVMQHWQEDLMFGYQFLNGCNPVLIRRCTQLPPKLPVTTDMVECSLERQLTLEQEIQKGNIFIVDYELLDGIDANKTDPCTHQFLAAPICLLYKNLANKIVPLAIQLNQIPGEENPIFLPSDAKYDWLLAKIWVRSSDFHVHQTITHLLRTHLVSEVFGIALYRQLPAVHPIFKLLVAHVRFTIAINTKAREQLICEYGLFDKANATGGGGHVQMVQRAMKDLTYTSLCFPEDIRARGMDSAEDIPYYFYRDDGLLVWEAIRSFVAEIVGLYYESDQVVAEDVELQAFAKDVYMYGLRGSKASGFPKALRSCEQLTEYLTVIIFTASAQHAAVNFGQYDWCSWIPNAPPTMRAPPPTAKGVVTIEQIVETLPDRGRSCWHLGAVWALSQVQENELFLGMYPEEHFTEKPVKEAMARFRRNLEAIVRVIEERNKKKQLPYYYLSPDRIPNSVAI
As to the kind of experiment: 5-Lipoxygenase (5-LPO) Assay, inhibition of 5-HETE formation in PMNL sonicate supernatant. The assay is classed as biochemical, guinea pig. Particulars: for IC50: guinea pig PMNL sonicate supernatant, 37° C., 5 μM 14C-arachidonic acid. Here is the method: 5-Lipoxygenase (5-LPO) Assay
Ten milliliters of a 2% casein solution were injected intraperitoneally into guinea pigs weighing 250-300 gm. After 16-18 hours, the guinea pigs were killed by suffocation in a carbon dioxide chamber. The peritoneal cavity was infused with 70 ml of saline and 40-50 ml of the fluid were recovered from the cavity. After centrifugation, cell pellets were washed twice in Hank's balanced salt solution (HBSS) without calcium ion.
The cells were then suspended in 5 ml of sodium phosphate buffer, pH 7.1 containing 1 mM EDTA, and 0.1% gelatin. About 20-30×10^7 cells were obtained from one guinea pig.
The PMNL suspension was disrupted by five 1/2 second pulse sonications at the setting of 3 in a Branson Sonifier, Model 350, equipped with a microtip. The sonicates were combined and centrifuged at 30,000× g for 10 minutes. The supernatant was kept frozen at -70° C. until use.
Enzyme activity was determined by assaying for 5-HETE formation by first incubating 0.2 ml of the supernatant obtained from the PMNL sonicate with the test compound, 1 mM CaCl2, 2 mM ATP, and 1 mM GSH for 5 minutes at 37° C. The mixture is treated with 5 μM ^14 C-arachidonicacid and incubated at 37° C. an additional 10 minutes. The enzyme reaction was then stopped by the addition of 10 μl of 1M citric acid and 10μl of an alcohol solution containing 20 mg/ml each of indomethacin and butylated hydroxyanisole (BHA). The reaction mixture was spotted (50 μl on a silica gel plate (Baker TLC plate S1250-PA-19C) and subjected to TLC in a solvent system of ethyl acetate/2,2,4-trimethylpentane/glacial acetic acid/water (90:50:20:100).
The radioactivity of the arachidonic acid and its metabolites (5-HETE and LTB4) was visualized from a developed x-ray film which had been exposed to the TLC plate 1-2 days. The amount of 5-HETE formed was quantitated by scraping the silica gel area corresponding to the spot on the x-ray film, and the radioactivity determined in a Isocap/300 liquid scintillation counter (Searle Analytic, Inc.).
The percent inhibition of the formation of 5-HETE was determined for each concentration of test compound tested as compared to a control experiment wherein no test compound was added. The concentration and percent inhibition values were plotted on semi log paper and the concentration in which formation of 5-HETE is inhibited by 50% (IC50) was determined by interpolation.

The test system of assay [1] is Collagen-Induced Arthritis. Briefly: Collagen-Induced Arthritis Assay, hindpaw volume. The assay is classed as in vivo, rat (inbred Lewis male). Particulars: Rattus norvegicus, po, oral gavage, 5 days per week, 28 or 30 days, rats. The protocol: Collagen-Induced Arthritis Assay
Type II collagen was isolated from bovine articular cartilage by the method of Strawich and Nimni Biochemistry, 10, 3905 (1971)]. The collagen was dissolved in 0.1 M acetic acid and stored at -20° C. Type II collagen solution was diluted to 2 mg/ml concentration and emulsified thoroughly with an equal volume of incomplete Freund's adjuvant (ICFA). The emulsion containing approximately 0.5 mg of collagen was injected intradermally on day 0 to groups of 6 inbred Lewis male rats (Charles River Breeders; 170-200 g) at various sites in the dorsal area. The hindpaw volumes of each rat were measured and recorded three times a week throughout the test period to assess the inflammatory reaction. The test group animals received compounds under test as suspensions in carboxymethylcellulose vehicle, by oral gavage, 5 days per week (Monday-Friday), beginning on day 1. Control animals received vehicle without a test compound. At the end of the test (day 28 or 30), the blood of these animals was drawn by cardiac puncture and the serum anti-type II collagen antibody levels were estimated by passive hemagglutination technique, using glutaraldehyde treated sheep red cells, to which type II collagen is conjugated [Avramaes et al., Immunochemistry, 6, 67 (1969); Andriopoulos et al., Arth. Rheum. 19, 613 (1976)]. The cellular response or delayed-type hypersensitivity response to type II collagen was measured by the radiometric ear index assay [Kostiala, Immunology, 33, 561 (1977)]. In certain experiments, the bone damage occurring because of immunization with type II collagen and the effects of drugs were determined from the radiographs of the hindpaws of two or three representative animals from each group. Injections of ICFA without collagen II were employed in some rats as a negative control; these rate received only carbomethoxycellulose vehicle during the test.
The % inhibition was calculated according to the following formula: [formula] where Vt is the hindpaw volume of a compound-treated animal (test group), Vc is the hindpaw volume of a non-compound-treated animal (carbomethoxycellulose vehicle only--the control group), and Vv is the hindpaw volume of a vehicle (carbomethoxycellulose) treated animal which received ICFA with no collagen II (negative control group).

As usually defined, the IC50 is the midpoint of a concentration-inhibition curve. Low values mean greater potency, high ones weaker potency. The inhibition in vivo is how much of the control response was suppressed. The low end stands for a weak effect, the high end for a strong effect. Regarding `CCCc1c(O)ccc(C(=O)c2ccccc2O)c1O` [Example 4, (2,4-Dihydroxy-3-propylphenyl)(2hydroxyphenyl)methanone], the IC50 at 5-lipoxygenase is 5880 nM. In assay [1], this compound returned an inhibition in vivo at 50 mg/kg of 47%.

The compound `COc1ccccc1C(=O)c1ccc(OC)c(C)c1O` [Example 9, (2-hydroxy-4-methoxy-3-methylphenyl)(2-methoxyphenyl)methanone] gave an IC50 against 5-lipoxygenase of 3670 nM. Moreover, in assay [1], the inhibition in vivo at 50 mg/kg was 0%.

On 5-lipoxygenase, `CCCc1c(OCCCCC#N)ccc(C(=O)c2ccccc2O)c1O` [Example 11, 5-[3-Hydroxy-4-(2-hydroxybenzoyl)-2-propylphenoxy]pentanenitrile] gave an IC50 of 2830 nM. Also, in assay [1], the inhibition in vivo at 10 mg/kg worked out at 0% and 25 mg/kg produced 31% inhibition in vivo.

The compound `CCCc1c(OCCCCc2nnn[nH]2)ccc(C(=O)c2ccccc2OC)c1O` [Example 23, (2-Hydroxy-3-propyl-4-[4-(1H-tetrazol-5-yl)butoxy]phenyl)(2-methoxyphenyl)methanone] showed an IC50 against 5-lipoxygenase of 1710 nM. Moreover, in assay [1], the inhibition in vivo at 3 mg/kg is 33%, 10 mg/kg produced 67% inhibition in vivo and 25 mg/kg produced 69% inhibition in vivo.

Consider `CCCc1c(OCCCCCCc2nnn[nH]2)ccc(C(=O)c2ccccc2O)c1O` [Example 25, (2-Hydroxyphenyl)[2-hydroxy-3-propyl-4-([6-(1H-tetrazol-5-yl)hexyl]oxy)phenyl]methanone], for which 11800 nM corresponded to half-maximal inhibition at 5-lipoxygenase (IC50). The compound further returned an inhibition in vivo at 25 mg/kg in assay [1] of 39%.

The compound `CCCc1c(OCCCCc2nnn[nH]2)ccc(C(=O)c2ccccc2O)c1O` [Example 26, (2-Hydroxyphenyl)(2-hydroxy-3-propyl-4[4-(1H-tetrazol-5-yl)butoxy]phenyl)methanone] showed an IC50 against 5-lipoxygenase of 1260 nM. In assay [1], this compound returned an inhibition in vivo at 3 mg/kg of 65%, an inhibition in vivo at 25 mg/kg of 71% and an inhibition in vivo at 30 mg/kg of 62%.

The compound `CCCc1c(OCCCCCCCCc2nnn[nH]2)ccc(C(=O)c2ccccc2O)c1O` [Example 28, (2-Hydroxyphenyl)[2-hydroxy-3-propyl-4-([8-(1H-tetrazol-5-yl)octyl]oxy)phenyl]methanone] had an IC50 on 5-lipoxygenase of 1330 nM. Further, in assay [1], testing at 3 mg/kg gave an inhibition in vivo of 65%, the inhibition in vivo at 10 mg/kg stood at 48% and the inhibition in vivo at 30 mg/kg worked out at 95%.

One may read the inhibition as the share of the control response that was lost under treatment. Higher therefore signals strong suppression. `CCCc1c(OCCCCC(=O)O)ccc(C(=O)c2ccccc2O)c1O` [Example 30, 5-[3-Hydroxy-4-(2-hydroxybenzoyl)-2-propylphenoxy]pentanoic acid]: 10 µg/mL produced 37% inhibition at 5-lipoxygenase (percent inhibition at 10 μg/ml). The compound further returned an inhibition in vivo at 50 mg/kg in assay [1] of 24%.

(Values after patent US4801616A, “Diphenylmethanone compounds and anti-inflammatory use thereof” (Eli Lilly and Company, priority 1986, dated 1989).)
